Bases are written 5' to 3'; sugars and linkages follow in the same order, as letters with counts (s phosphorothioate, o phosphodiester; PS: all linkages phosphorothioate). C may stand for cytosine or 5-methylcytosine; the collection does not tell. l = locked nucleic acid (LNA); d = 2'-deoxy (DNA)
Target: HIF1A
Assay: HeLa, 100 nM transfected, 24 h, mean of 3
Details: ASO

Sequence	caspase activation (% of PBS control)
TGGCAAGCATCCTGTA (sugars ldlldddddddddldl, PS)	297
TGGCAAGCATCCTGTA (sugars ldllddddddddlddl, PS)	438
TGGCAAGCATCCTGTA (sugars ldllddddddddldll, PS)	466
TGGCAAGCATCCTGTA (sugars ldllddddddddlldl, PS)	412
TGGCAAGCATCCTGTA (sugars ldlldddddddldddl, PS)	229
TGGCAAGCATCCTGTA (sugars ldlldddddddlddll, PS)	306
TGGCAAGCATCCTGTA (sugars ldlldddddddldldl, PS)	400
TGGCAAGCATCCTGTA (sugars ldlldddddddldlll, PS)	435
TGGCAAGCATCCTGTA (sugars ldlldddddddllddl, PS)	360
TGGCAAGCATCCTGTA (sugars ldlldddddddlldll, PS)	381
TGGCAAGCATCCTGTA (sugars ldlldddddddllldl, PS)	438
TGGCAAGCATCCTGTA (sugars ldlllddddddddldl, PS)	448
TGGCAAGCATCCTGTA (sugars ldllldddddddlddl, PS)	419
TGGCAAGCATCCTGTA (sugars ldllldddddddldll, PS)	459
TGGCAAGCATCCTGTA (sugars ldllldddddddlldl, PS)	440
TGGCAAGCATCCTGTA (sugars ldlllddddddldddl, PS)	417
TGGCAAGCATCCTGTA (sugars ldlllddddddlddll, PS)	410
TGGCAAGCATCCTGTA (sugars ldlllddddddldldl, PS)	455
TGGCAAGCATCCTGTA (sugars ldlllddddddldlll, PS)	476
TGGCAAGCATCCTGTA (sugars ldlllddddddllddl, PS)	495
TGGCAAGCATCCTGTA (sugars ldlllddddddlldll, PS)	437
TGGCAAGCATCCTGTA (sugars ldlllddddddllldl, PS)	490
TGGCAAGCATCCTGTA (sugars lldddddddddldldl, PS)	423
TGGCAAGCATCCTGTA (sugars llddlddddddddldl, PS)	215
TGGCAAGCATCCTGTA (sugars llddldddddddlddl, PS)	354

Sequence	caspase activation (% of PBS control)
TGGCAAGCATCCTGTA (sugars llddldddddddldll, PS)	401
TGGCAAGCATCCTGTA (sugars llddldddddddlldl, PS)	341
TGGCAAGCATCCTGTA (sugars llddlddddddldddl, PS)	383
TGGCAAGCATCCTGTA (sugars llddlddddddlddll, PS)	455
TGGCAAGCATCCTGTA (sugars llddlddddddldldl, PS)	390
TGGCAAGCATCCTGTA (sugars llddlddddddldlll, PS)	425
TGGCAAGCATCCTGTA (sugars llddlddddddllddl, PS)	385
TGGCAAGCATCCTGTA (sugars llddlddddddlldll, PS)	446
TGGCAAGCATCCTGTA (sugars llddlddddddllldl, PS)	397
TGGCAAGCATCCTGTA (sugars lldldddddddddldl, PS)	522
TGGCAAGCATCCTGTA (sugars lldlddddddddlddl, PS)	604
TGGCAAGCATCCTGTA (sugars lldlddddddddldll, PS)	502
TGGCAAGCATCCTGTA (sugars lldlddddddddlldl, PS)	461
TGGCAAGCATCCTGTA (sugars lldldddddddldddl, PS)	322
TGGCAAGCATCCTGTA (sugars lldldddddddlddll, PS)	460
TGGCAAGCATCCTGTA (sugars lldldddddddldldl, PS)	429
TGGCAAGCATCCTGTA (sugars lldldddddddldlll, PS)	423
TGGCAAGCATCCTGTA (sugars lldldddddddllddl, PS)	309
TGGCAAGCATCCTGTA (sugars lldldddddddlldll, PS)	410
TGGCAAGCATCCTGTA (sugars lldldddddddllldl, PS)	419
TGGCAAGCATCCTGTA (sugars lldllddddddddldl, PS)	418
TGGCAAGCATCCTGTA (sugars lldlldddddddlddl, PS)	459
TGGCAAGCATCCTGTA (sugars lldlldddddddldll, PS)	454
TGGCAAGCATCCTGTA (sugars lldlldddddddlldl, PS)	362
TGGCAAGCATCCTGTA (sugars lldllddddddldddl, PS)	385

Sequence	caspase activation (% of PBS control)
TGGCAAGCATCCTGTA (sugars lldllddddddlddll, PS)	475
TGGCAAGCATCCTGTA (sugars lldllddddddldldl, PS)	483
TGGCAAGCATCCTGTA (sugars lldllddddddldlll, PS)	438
TGGCAAGCATCCTGTA (sugars lldllddddddllddl, PS)	354
TGGCAAGCATCCTGTA (sugars lldllddddddlldll, PS)	493
TGGCAAGCATCCTGTA (sugars lldllddddddllldl, PS)	474
TGGCAAGCATCCTGTA (sugars lllddddddddldldl, PS)	385
TGGCAAGCATCCTGTA (sugars llldlddddddddldl, PS)	350
TGGCAAGCATCCTGTA (sugars llldldddddddlddl, PS)	341
TGGCAAGCATCCTGTA (sugars llldldddddddldll, PS)	367
TGGCAAGCATCCTGTA (sugars llldldddddddlldl, PS)	367
TGGCAAGCATCCTGTA (sugars llldlddddddldddl, PS)	253
TGGCAAGCATCCTGTA (sugars llldlddddddlddll, PS)	348
TGGCAAGCATCCTGTA (sugars llldlddddddldldl, PS)	350
TGGCAAGCATCCTGTA (sugars llldlddddddldlll, PS)	428
TGGCAAGCATCCTGTA (sugars llldlddddddllddl, PS)	268
TGGCAAGCATCCTGTA (sugars llldlddddddlldll, PS)	458
TGGCAAGCATCCTGTA (sugars llldlddddddllldl, PS)	413
TGGCAAGCATCCTGTA (sugars lllldddddddldldl, PS)	372
TGGCAAGCATCCTGTA (sugars lllllddddddldldl, PS)	373
TTACTGCCTTCTT (sugars l1 d1 l1 d7 l3, PS)	183
TTACTGCCTTCTT (sugars l1 d1 l1 d8 l2, PS)	146
TTACTGCCTTCTT (sugars l1 d1 l1 d9 l1, PS)	117
TTACTGCCTTCTT (sugars l1 d1 l2 d6 l3, PS)	237
TTACTGCCTTCTT (sugars l1 d1 l2 d7 l2, PS)	165

Sequence	caspase activation (% of PBS control)
TTACTGCCTTCTT (sugars l1 d1 l2 d8 l1, PS)	153
TTACTGCCTTCTT (sugars l1 d2 l1 d6 l3, PS)	131
TTACTGCCTTCTT (sugars l1 d2 l1 d7 l2, PS)	126
TTACTGCCTTCTT (sugars l1 d2 l1 d8 l1, PS)	105
TTACTGCCTTCTT (sugars l1 d9 l1 d1 l1, PS)	127
TTACTGCCTTCTT (sugars l1 d9 l3, PS)	131
TTACTGCCTTCTT (sugars l1 d10 l2, PS)	102
TTACTGCCTTCTT (sugars l1 d11 l1, PS)	82.9
TTACTGCCTTCTT (sugars l2 d1 l1 d6 l3, PS)	325
TTACTGCCTTCTT (sugars l2 d1 l1 d7 l2, PS)	202
TTACTGCCTTCTT (sugars l2 d1 l1 d8 l1, PS)	147
TTACTGCCTTCTT (sugars l2 d8 l1 d1 l1, PS)	198
TTACTGCCTTCTT (sugars l2 d8 l3, PS)	270
TTACTGCCTTCTT (sugars l2 d9 l2, PS)	148
TTACTGCCTTCTT (sugars l2 d10 l1, PS)	158
TTACTGCCTTCTT (sugars l3 d7 l1 d1 l1, PS)	205
TTACTGCCTTCTT (sugars l3 d7 l3, PS)	291
TTACTGCCTTCTT (sugars l3 d8 l2, PS)	226
TTACTGCCTTCTT (sugars l3 d9 l1, PS)	128
TTACTGCCTTCTT (sugars l4 d6 l1 d1 l1, PS)	308
TTACTGCCTTCTT (sugars l4 d6 l3, PS)	396
TTACTGCCTTCTT (sugars l4 d7 l2, PS)	337
TTACTGCCTTCTT (sugars l4 d8 l1, PS)	202
TTACTGCCTTCTT (sugars lddlddddddldl, PS)	127
